The results in this text go back to PMC5926067 (Japanese Journal of Cancer Research : Gann, 1999).

Format in all cases: biochemical
For one assay, the target named is gelatinase B (MMP-9) (Homo sapiens, UniProt P14780). The assay can be described thus: fluorescence-labeled gelatin degradation assay, partially purified enzyme.
A further assay addresses T1, interstitial collagenase (Homo sapiens, UniProt P03956).
T1 sequence (P03956 100-469): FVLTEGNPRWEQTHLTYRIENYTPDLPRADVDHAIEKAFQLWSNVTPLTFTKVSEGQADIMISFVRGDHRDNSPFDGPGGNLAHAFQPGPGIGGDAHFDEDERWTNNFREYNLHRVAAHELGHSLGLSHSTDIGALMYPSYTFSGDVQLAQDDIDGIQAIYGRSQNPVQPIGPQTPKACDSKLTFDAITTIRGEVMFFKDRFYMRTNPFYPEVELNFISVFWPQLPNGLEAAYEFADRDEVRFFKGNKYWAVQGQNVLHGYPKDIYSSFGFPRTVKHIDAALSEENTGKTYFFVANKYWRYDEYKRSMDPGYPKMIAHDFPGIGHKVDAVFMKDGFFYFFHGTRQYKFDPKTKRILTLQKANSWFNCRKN
The experiment in a line: fluorescence-labeled collagen degradation assay, partially purified enzyme.

For a further assay, the target named is stromelysin (Mus musculus, UniProt P28862). The assay can be described thus: fluorescence-labeled casein degradation assay, partially purified enzyme.
stromelysin, sequence (P28862 100-477): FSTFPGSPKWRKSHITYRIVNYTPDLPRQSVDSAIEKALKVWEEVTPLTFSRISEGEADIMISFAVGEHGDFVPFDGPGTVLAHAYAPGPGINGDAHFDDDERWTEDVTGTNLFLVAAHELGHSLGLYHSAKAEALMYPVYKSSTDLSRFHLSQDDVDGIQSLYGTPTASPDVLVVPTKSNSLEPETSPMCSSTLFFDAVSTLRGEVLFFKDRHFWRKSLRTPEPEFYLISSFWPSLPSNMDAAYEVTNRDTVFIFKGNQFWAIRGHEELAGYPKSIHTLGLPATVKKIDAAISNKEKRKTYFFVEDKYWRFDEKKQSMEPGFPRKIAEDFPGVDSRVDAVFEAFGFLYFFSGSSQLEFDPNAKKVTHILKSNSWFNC
In another assay the target is T2, gelatinase A (MMP-2) (Homo sapiens, UniProt P08253).
T2 sequence (P08253 110-660): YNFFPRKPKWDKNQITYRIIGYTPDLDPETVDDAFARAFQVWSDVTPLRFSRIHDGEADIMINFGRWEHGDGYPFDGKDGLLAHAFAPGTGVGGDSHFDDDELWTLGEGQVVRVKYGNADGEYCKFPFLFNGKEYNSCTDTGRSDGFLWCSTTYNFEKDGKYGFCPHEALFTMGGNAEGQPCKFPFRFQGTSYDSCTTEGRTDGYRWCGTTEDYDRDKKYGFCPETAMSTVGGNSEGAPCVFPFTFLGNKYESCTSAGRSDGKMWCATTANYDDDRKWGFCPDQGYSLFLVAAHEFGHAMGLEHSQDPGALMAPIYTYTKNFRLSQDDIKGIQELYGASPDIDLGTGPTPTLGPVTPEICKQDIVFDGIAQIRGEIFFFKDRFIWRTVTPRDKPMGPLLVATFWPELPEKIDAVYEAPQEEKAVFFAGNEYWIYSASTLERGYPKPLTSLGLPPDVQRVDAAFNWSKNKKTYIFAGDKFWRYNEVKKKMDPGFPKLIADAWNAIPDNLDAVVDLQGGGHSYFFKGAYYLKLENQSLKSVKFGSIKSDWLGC
The experiment in a line: fluorescence-labeled gelatin degradation assay, partially purified enzyme.

gelatinase B (MMP-9), sequence (P14780 107-707): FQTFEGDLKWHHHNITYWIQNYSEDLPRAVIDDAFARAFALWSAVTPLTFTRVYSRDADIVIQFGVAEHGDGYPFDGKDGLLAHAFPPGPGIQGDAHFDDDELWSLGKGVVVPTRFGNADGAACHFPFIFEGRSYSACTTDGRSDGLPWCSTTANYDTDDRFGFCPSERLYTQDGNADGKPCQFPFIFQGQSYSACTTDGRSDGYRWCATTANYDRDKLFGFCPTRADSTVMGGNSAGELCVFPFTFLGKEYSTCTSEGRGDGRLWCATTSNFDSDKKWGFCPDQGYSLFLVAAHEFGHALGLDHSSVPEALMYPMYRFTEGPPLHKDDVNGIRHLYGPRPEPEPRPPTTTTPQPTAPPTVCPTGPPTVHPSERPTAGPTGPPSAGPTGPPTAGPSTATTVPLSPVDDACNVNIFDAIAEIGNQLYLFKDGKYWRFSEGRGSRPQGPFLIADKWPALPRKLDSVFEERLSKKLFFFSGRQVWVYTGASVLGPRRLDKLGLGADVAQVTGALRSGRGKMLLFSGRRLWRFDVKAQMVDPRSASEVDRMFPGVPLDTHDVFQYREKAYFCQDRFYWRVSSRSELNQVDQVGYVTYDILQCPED

Regarding `CON1C(=O)[C@@H](NC(=O)[C@@H](CC(=O)NO)CC(C)C)Cc2ccccc21` [OPB-3206, 3S-[4-(N-hydroxyamino)-2R-isobutylsuccinyl]amino-1-methoxy-3,4-dihydrocarbostyril], the IC50 stood at 500 nM at gelatinase B (MMP-9), 700 nM on interstitial collagenase, 2000 nM against stromelysin and 5000 nM against gelatinase A (MMP-2).
